SMILES strings stand for the structures. Read-outs that look alike come from different tables or passages of the source.

Common to all, as to format: cell-based
For one assay, the system named is TMD8 cells. As to the kind of experiment: Resazurin cell viability (proliferation) assay in TMD8 DLBCL cells. Particulars: TMD8 cells (BTK dependent), 72 h, 50% growth inhibition vs vehicle, read-out: TMD8 Prol GI50. On the procedure: (§1) Compounds of the invention were tested in the following cellular assays. The terms in Table 2 are defined as follows: DC50 refers to the concentration at which 50% maximal degradation was observed; deg Amax is the extent of degradation and the value refers to the % protein remaining at the concentration at which maximum degradation is seen; ProI GI50 refers to the proliferation data and defines the concentration at which 50% growth inhibition was observed compared to the vehicle treated control at the end of the incubation time. TMD8 cells are BTK dependent and OCI-LY3 cells are BTK independent.
(§2) Cell Viability Assay in DLBCL (Diffuse Large B-Cell Lymphoma) Cells:
(§3) The effect of the BTK compounds on cell proliferation was measured by a Resazurin (Sigma, #R7017) based cell viability assay. TMD8 (BTK compound sensitive) and OCI-LY3 (BTK compound insensitive) cells were incubated for 72 h at 37° C. and 5% CO2 with the corresponding compound, Resazurin is a non-toxic, cell-permeable substrate that is virtually non-fluorescent. Upon entering living cells, Resazurin (Sigma, #R7017) is reduced to highly fluorescent Resorufin. The metabolic activity was assessed by measuring the fluorescence signal (ex. 530 nm; em. 600 nm).
(§4) TMD8 and OCI-Ly3 cells were seeded at day 0 in triplicates at a cell density of 1×10^4 cells per 150 μl/well in a 96-well plate (Costar #3904). Additional plates were prepared, in order to assess the basal metabolic activity of both cell lines at the beginning of the experiment. For these reference plates, Resazurin (Sigma, #R7017) was added to a final concentration of 13 μg/ml 3 h post seeding and was incubated for 2 h at 37° C. and 5% CO2. Following incubation, the fluorescent signal intensity of the 96-well plates was measured on a Mithras LB940 multimode plate reader at 530/600 nm (Berthold Technologies, Germanyl).
(§5) In parallel, 3 h post-seeding, test-plates were treated with compound at various concentrations, or with vehicle (DMSO) alone for 3 days. The compound addition to the plates was performed by using a HP D300 digital dispenser (TECAN, Switzerland). The compounds were tested in triplicate, 8-point serial dilution (1:4), with a start concentration of 10 μM for OCI-LY3 and 1 μM for the TMD8 cells, respectively. To assess the relative proliferation of the cells, Resazurin was added to each well directly to the medium to a final concentration of 13 μg/ml. The plates were incubated for 2 h at 37° C. and 5% CO2 to result in a 72 h endpoint. Following incubation, the fluorescent signal intensity of the 96-well plates were measured on a Mithras LB940 multimode plate reader at 530/600 nm (Berthold Technologies, Germanyl). The formation of Resorufin dye directly correlates with the number of metabolically active cells. For each triplicate treatment the mean and standard deviation were calculated and analyzed via curve fitting software to determine the respective compound concentration resulting in 50% growth inhibition (GI50) values. For each compound GI50 values were typically determined from at least 2 entirely independent experiments.
TMD8 cells were acquired through a license agreement with Tokyo Medical and Dental University, Japan. Cells are cultivated in MEM Alpha (BioConcept, #1-23F01-1, lot. LB04262P) supplemented with 10% FCS (HyClone, GE #SH30066.03, lot AB3217603), 2 mM L-Glutamine (BioConcept, #5-10K50-H, lot. LA03467P), 1% Pen/Strep (BioConcept, #4-01F00-H, lot. LB04235P).
A general note: The colour change of resazurin is a common sign of viable cells or microbes.

The test system of the next assay is OCI-LY3 cells. As to the kind of experiment: Resazurin cell viability (proliferation) assay in OCI-LY3 DLBCL cells. To be noted: OCI-LY3 cells (BTK independent), 72 h, 50% growth inhibition vs vehicle, read-out: OCI-LY3 Prol GI50. How it is done: as §1, §2, §3, §4, §5
OCI-LY3 cells were acquired through a license agreement with University Health Network, Toronto, Canada. Cells are cultivated in RPM11640 media (Gibco, #61870-010, lot. 1894759), supplemented with 10% FCS (HyClone, GE #SH30066.03, lot AB217603), 2 mM L-Glutamine (BioConcept, #5-10K50-H, lot. LA03467P), 1 mM Sodium Pyruvate (BioConcept, #5-60F00-H, lot. LB10510P), 10 mM HEPES (Gibco, #15630-056, lot. 1854074), 1% Pen/Strep (BioConcept, #4-01F00-H, lot. LB04235P).

A further assay has as its target T1, BTK-GFP (Homo sapiens, UniProt Q06187+Q96SW2).
T1 construct: expressed in transfected cells; host or cells: HEK293A (Invitrogen R70507), lentiviral transduction with pLenti6-BTK-GFP-Ires-RFP, blasticidin selection
As to the kind of experiment: BTK-GFP protein abundance flow cytometry assay in HEK293A cells. To be noted: HEK293A BTK-GFP-iresRFP cells, 24 h; for DC50: GFP signal by flow cytometry, concentration at which 50% maximal degradation was observed; for BTK deg Amax: % protein remaining at the concentration at which maximum degradation is seen. On the procedure: as §1
BTK-GFP and IKZF3-GFP protein abundance flow cytometry assay in HEK293A cells:
Degradation of BTK or IKZF3 was measured in HEK293A cells (Invitrogen R70507) expressing either BTK-GFP and RFP or IKZF3-GFP and RFP from a stably integrated bicistronic BTK-GFP-iresRFP or IKZF3-GFP-iresRFP construct, respectively. Reduction of the GFP signal measured by flow cytometry served as readout for BTK or IKZF3 degradation after degrader treatment.
i) Cloning of the pLenti6-BTK-GFP-1Res-RFP and IKZF3-GFP-Ires-RFP Sensor Vectors
The bicistronic BTK-GFP-iresRFP construct is based on a pLenti6-DEST vector backbone where GFP was introduced into the unique Xho1 site downstream of the destination cassette (DEST) and RFP was cloned behind an internal ribosomal entry site (Ires).
In detail, the sensor construct was engineered by replacing NanoLuciferase (NLuc) by GFP and FireFly luciferase (FF) by RFP from pLenti6-DEST-NLuc-Ires-FF.
The pLenti6-DEST-NLuc-Ires-FF sensor construct was cloned by replacing eGFP from pLenti6-DEST-ires-eGFP with a synthesized stuffer element (encoding Ires-FF with FF flanked by two Nhe1 restriction sites) using blunt end cloning replacing Ires-eGFP between the two PmII. To enable C-terminal tagging with NanoLuciferase (NLuc), NLuc was amplified from pNL1.1 (Promega #N1001) using linker primers with Xho1 sites for ligating into linearized pLenti6-DEST-Ires-FF using Xho1 digest resulting in the construct pLenti6-DEST-NLuc-Ires-FF.
The pLenti6-DEST-NLuc-Ires-FF served as base vector for cloning pLenti6-DEST-GFP-Ires-RFP using Gibson assembly to replace FF with RFP and NLuc with GFP. In a first round FF was replaced by RFP by amplifying RFP from a template using the following Gibson assembly linker primers (Gibson-Nhe1 RFPfw, […]gctagc[…] (SEQ ID NO: 1); Gibson-Nhe1 RFP-Stoprev, […]ctagc[…] (SEQ ID NO: 2)) to clone into pLenti6-DEST-NLuc-Ires-FF digested with Nhe1 and gel-purified to remove the FF fragment. The resulting pLenti6-DEST-NLuc-Ires-RFP vector served as the template to replace NLuc with GFP by amplifying GFP from a template using following Gibson assembly linker primers (Gibson-Xho1 GFPfw, […]c[…] (SEQ ID NO: 3); Gibson-Xho1 GFP-Stoprev, […] (SEQ ID NO: 4)) to clone into pLenti6-DEST-NLuc-Ires-RFP digested with Xho1 and gel-purified to remove the NLuc fragment. All Gibson assembly reactions were performed with Gibson assembly Master Mix (New England Biolabs NEB E261 IL) according to manufacturer's manual, resulting in the destination vector pLenti6-DEST-GFP-Ires-RFP to allow Gateway cloning. To enable gateway cloning and C-terminal GFP tagging of BTK, the BTK open reading frame (ORF) was first shuttled from a pcDNA-DEST40-BTK vector (Invitrogen library ID INV_20090504v1) into pDONR221 (Invitrogen 12536-017) vector using a gateway BP reaction according to the manufacturer's manual (Invitrogen 11789-013) resulting in the novel construct pENTR221-BTK. For C-terminal tagging the STOP codon was mutated to a leucine performing a mutagenesis reaction with the following primers (pENTR221-BTK Quikchange STOP-Leu fw, gtcatggatgaagaatccTTGaacccagctttcttgtac; pENTR221-BTK Quikchange STOP-Leu REVC, gtacaagaaagctgggttCAAggattcttcatccatgac) using the QuikChange Lightning mutagenesis kit (Agilent Technologies #210518) according to the manufacturer's manual, resulting in pENTR221-BTK (STOP-Leu). […]

T1 sequence (Q06187 whole entry): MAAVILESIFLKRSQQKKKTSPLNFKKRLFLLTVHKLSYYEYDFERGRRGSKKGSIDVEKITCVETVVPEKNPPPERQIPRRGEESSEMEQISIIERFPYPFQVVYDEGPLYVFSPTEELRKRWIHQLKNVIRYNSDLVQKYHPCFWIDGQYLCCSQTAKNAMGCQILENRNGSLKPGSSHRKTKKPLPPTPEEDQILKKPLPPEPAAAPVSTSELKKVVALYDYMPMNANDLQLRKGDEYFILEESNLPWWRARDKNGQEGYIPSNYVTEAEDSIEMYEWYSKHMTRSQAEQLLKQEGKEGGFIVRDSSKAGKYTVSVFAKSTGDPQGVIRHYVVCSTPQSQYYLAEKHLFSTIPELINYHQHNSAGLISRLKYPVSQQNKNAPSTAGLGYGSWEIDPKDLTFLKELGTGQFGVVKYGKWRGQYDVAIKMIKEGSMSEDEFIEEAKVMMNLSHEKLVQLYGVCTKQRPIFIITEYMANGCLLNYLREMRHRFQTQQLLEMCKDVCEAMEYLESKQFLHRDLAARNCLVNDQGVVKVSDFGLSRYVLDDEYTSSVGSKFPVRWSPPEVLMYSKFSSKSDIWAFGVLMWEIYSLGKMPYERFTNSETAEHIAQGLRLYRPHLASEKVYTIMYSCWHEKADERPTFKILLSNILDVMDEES
T1 sequence (Q96SW2 whole entry): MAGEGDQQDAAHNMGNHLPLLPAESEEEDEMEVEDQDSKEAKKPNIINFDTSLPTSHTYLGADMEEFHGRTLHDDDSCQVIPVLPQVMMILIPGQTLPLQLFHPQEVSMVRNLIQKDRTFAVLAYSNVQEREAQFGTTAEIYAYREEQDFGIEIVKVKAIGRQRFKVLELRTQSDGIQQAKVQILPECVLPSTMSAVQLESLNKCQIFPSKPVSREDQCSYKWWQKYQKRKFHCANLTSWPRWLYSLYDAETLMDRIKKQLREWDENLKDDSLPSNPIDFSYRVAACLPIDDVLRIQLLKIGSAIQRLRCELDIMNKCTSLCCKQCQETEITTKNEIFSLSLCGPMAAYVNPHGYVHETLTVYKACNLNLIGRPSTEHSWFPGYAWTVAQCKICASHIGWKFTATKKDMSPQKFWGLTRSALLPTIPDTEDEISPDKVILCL
T1 sequence (Q16531 whole entry partner): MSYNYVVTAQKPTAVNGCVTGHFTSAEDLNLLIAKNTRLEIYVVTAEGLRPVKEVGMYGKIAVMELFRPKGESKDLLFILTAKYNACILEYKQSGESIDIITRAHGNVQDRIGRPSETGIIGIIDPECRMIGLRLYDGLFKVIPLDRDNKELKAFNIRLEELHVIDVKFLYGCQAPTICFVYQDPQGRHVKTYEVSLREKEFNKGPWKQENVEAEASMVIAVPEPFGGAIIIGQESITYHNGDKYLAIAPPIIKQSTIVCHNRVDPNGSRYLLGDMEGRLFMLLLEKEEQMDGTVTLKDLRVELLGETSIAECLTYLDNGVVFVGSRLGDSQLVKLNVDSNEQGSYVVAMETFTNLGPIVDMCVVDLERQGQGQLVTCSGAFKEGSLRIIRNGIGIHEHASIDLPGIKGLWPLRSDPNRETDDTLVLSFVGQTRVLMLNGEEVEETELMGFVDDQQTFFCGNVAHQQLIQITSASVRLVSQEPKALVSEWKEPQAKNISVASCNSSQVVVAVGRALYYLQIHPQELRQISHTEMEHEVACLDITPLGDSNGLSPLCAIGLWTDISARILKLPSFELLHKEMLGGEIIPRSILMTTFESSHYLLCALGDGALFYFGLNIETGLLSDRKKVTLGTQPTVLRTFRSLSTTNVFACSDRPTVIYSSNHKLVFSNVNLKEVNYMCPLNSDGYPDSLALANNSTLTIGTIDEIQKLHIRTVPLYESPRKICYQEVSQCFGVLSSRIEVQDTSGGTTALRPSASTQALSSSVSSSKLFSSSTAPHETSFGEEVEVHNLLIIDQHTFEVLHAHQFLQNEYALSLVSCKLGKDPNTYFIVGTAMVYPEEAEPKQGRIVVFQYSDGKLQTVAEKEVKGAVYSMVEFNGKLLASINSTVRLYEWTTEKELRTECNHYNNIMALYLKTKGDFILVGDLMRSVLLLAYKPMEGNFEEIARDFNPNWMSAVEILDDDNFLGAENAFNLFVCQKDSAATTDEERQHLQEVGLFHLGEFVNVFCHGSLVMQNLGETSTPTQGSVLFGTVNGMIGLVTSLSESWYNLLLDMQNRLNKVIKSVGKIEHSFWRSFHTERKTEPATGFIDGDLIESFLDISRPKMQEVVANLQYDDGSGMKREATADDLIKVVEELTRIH

Regarding `COc1ccc(C(=O)NCCN2CC3(CCN(Cc4ccc(-c5cc6c(-c7cc(F)cc(NC(=O)c8ccc(C(C)(C)O)cc8F)c7C)ncnc6[nH]5)cc4)CC3)C2)cc1N1CCC(=O)NC1=O` [Compound 52, N-(3-(6-(4-((2-(2-(3-(2,4-dioxotetrahydropyrimidin-1(2H)-yl)-4-methoxybenzamido)ethyl)-2,7-diazaspiro[3.5]nonan-7-yl)methyl)phenyl)-7H-pyrrolo[2,3-d]pyrimidin-4-yl)-5-fluoro-2-methylphenyl)-2-fluoro-4-(2-hydroxypropan-2-yl)benzamide], the results for the GI50 in the assay on TMD8 cells (Homo sapiens) and with OCI-LY3 cells (Homo sapiens) were 22.7 nM and greater than 10 µM, respectively. Besides, the DC50 at BTK-GFP is 2580 nM. In addition, the “BTK deg Amax” value on BTK-GFP is given as 43.7%.

Turning to `COc1ccc(C(=O)N2CCN(CCNCCCOCc3ccc(-c4cc5c(-c6cc(F)cc(NC(=O)c7ccc(C(C)(C)O)cc7F)c6C)ncnc5[nH]4)cc3)CC2)cc1N1CCC(=O)NC1=O` [Compound 45, N-(3-(6-(4-((3-((2-(4-(3-(2,4-dioxotetrahydropyrimidin-1(2H)-yl)-4-methoxybenzoyl)piperazin-1-yl)ethyl)amino)propoxy)methyl)phenyl)-7H-pyrrolo[2,3-d]pyrimidin-4-yl)-5-fluoro-2-methylphenyl)-2-fluoro-4-(2-hydroxypropan-2-yl)benzamide], in the assay with TMD8 cells (Homo sapiens), the GI50 turned out to be 19.1 nM. Besides, the GI50 in the assay on OCI-LY3 cells (Homo sapiens) was greater than 10 µM. Moreover, on BTK-GFP, the half-maximal degradation concentration (DC50) turned out to be 284 nM and the “BTK deg Amax” value was found to be 3.2%.

As for `Cc1ccc(C(=O)N2CCC(OC3CCN(CCc4ccc(-c5cc6c(-c7cc(F)cc(NC(=O)c8ccc(C(C)(C)O)cc8F)c7C)ncnc6[nH]5)cc4)CC3)CC2)cc1N1CCC(=O)NC1=O` [Compound 10, N-(3-(6-(4-(2-(4-((1-(3-(2,4-Dioxotetrahydropyrimidin-1(2H)-yl)-4-methylbenzoyl)piperidin-4-yl)oxyl)piperidin-1-yl)ethyl)phenyl)-7H-pyrrolo[2,3-d]pyrimidin-4-yl)-5-fluoro-2-methylphenyl)-2-fluoro-4-(2-hydroxypropan-2-yl)benzamide], the GI50 with TMD8 cells (Homo sapiens) came out at 0.36 nM. Also, the GI50 in the assay with OCI-LY3 cells (Homo sapiens) turned out to be 5.94 µM. Further, at BTK-GFP, half-maximal degradation (DC50) was put at 0.7 nM and the “BTK deg Amax” value amounted to 2.3%.

With `COc1ccc(C(=O)N2CCC3(CCN(Cc4ccc(-c5cc6c(-c7cc(F)cc(NC(=O)c8ccc(C(C)(C)O)cc8F)c7C)ncnc6[nH]5)cc4)C[C@@H]3CO)CC2)cc1N1CCC(=O)NC1=O` (single isomer, unassigned) [Compound 24], the concentration for 50% growth inhibition (GI50) with TMD8 cells (Homo sapiens) was 5.98 nM. In addition, the GI50 in the assay with OCI-LY3 cells (Homo sapiens) was greater than 10 µM. For the same compound, at BTK-GFP, the DC50 stood at 77.1 nM and the “BTK deg Amax” value is listed as 10.8%.

Take `COc1ccc(C(=O)N2CCC(O[C@H]3CC[C@H](OCc4ccc(-c5cc6c(-c7cc(F)cc(NC(=O)c8ccc(C(C)(C)O)cc8F)c7C)ncnc6[nH]5)cc4)CC3)CC2)cc1N1CCC(=O)NC1=O` [Compound 56, N-(3-(6-(4-((((1r,4r)-4-((1-(3-(2,4-dioxotetrahydropyrimidin-1(2H)-yl)-4-methoxybenzoyl)piperidin-4-yl)oxy)cyclohexyl)oxy)methyl)phenyl)-7H-pyrrolo[2,3-d]pyrimidin-4-yl)-5-fluoro-2-methylphenyl)-2-fluoro-4-(2-hydroxypropan-2-yl)benzamide]: the results for the GI50 in the assay with TMD8 cells and with OCI-LY3 cells were 15.4 nM and 6.33 µM, respectively. Moreover, it took 4 nM to reach half-maximal degradation at BTK-GFP (DC50). The “BTK deg Amax” value on BTK-GFP came out at 4.4%.

With `COc1ccc(C(=O)N2CCC(CCN3CCC(COc4ccc(-c5cc6c(-c7cc(F)cc(NC(=O)c8ccc(C(C)(C)O)cc8F)c7C)ncnc6[nH]5)cc4)CC3)CC2)cc1N1CCC(=O)NC1=O` [Compound 43, N-(3-(6-(4-((1-(2-(1-(3-(2,4-dioxotetrahydropyrimidin-1(2H)-yl)-4-methoxybenzoyl)piperidin-4-yl)ethyl)piperidin-4-yl)methoxy)phenyl)-7H-pyrrolo[2,3-d]pyrimidin-4-yl)-5-fluoro-2-methylphenyl)-2-fluoro-4-(2-hydroxypropan-2-yl)benzamide], the GI50 in the assay on TMD8 cells (Homo sapiens) was found to be 0.68 nM; in the assay on OCI-LY3 cells (Homo sapiens), 3.34 µM. The compound further showed a DC50 at BTK-GFP of 1 nM. Further, the “BTK deg Amax” value at BTK-GFP amounted to 2.3%.

By GI50 is commonly meant the concentration at which growth is held to half of that of the control. As usually defined, the DC50 is the concentration at which degradation of the target reaches its halfway point. Read a high DC50 as a less potent degrader.

Source of the values: US12441733B2, “Substituted 2,4-dioxotetrahydropyrimidines as intermediates in the synthesis of bruton's tyrosine kinase inhibitors” (Novartis AG, priority 2018, dated 2025).
